According to patent publication US20230167088A1, “1-PYRAZINYLPYRAZOLYL-3-OXYALKYL ACIDS AND THEIR DERIVATIVES, AND THEIR USE FOR CONTROL OF UNDESIRED PLANT GROWTH” (BAYER AKTIENGESELLSCHAFT, priority 2020, published 2023):

Legend:
POLCO [1] = experiment: Herbicidal post-emergence action 1a (greenhouse pots, visual rating); format: in vivo, Polygonum convolvulus; settings: visual rating about 3 weeks after treatment
Method in brief: (§1)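 Weeds and crops sown in sandy loam in greenhouse pots were sprayed post-emergence at the one-leaf stage (2–3 weeks after sowing) with WP or EC formulations plus 0.5% additive at 600 l/ha water, 320 and/or 80 g/ha. About 3 weeks later damage was rated visually against untreated controls (0% = no effect, 100% = dead).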

MATIN [2] = experiment: as above; format: in vivo, Matricaria inodora; settings: visual rating about 3 weeks after treatment
Method in brief: as §1

AVEFA [3] = experiment: Herbicidal pre-emergence action 2a (greenhouse pots, visual scoring); format: in vivo, Avena fatua; settings: dosage 320 g/ha, visual scoring after about 3 weeks
Method in brief: (§2)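 Seeds were sown in pots, covered with soil, and the compound (WP or EC formulation) was sprayed onto the soil surface as an aqueous suspension or emulsion with 0.5% additive at 600 l/ha water, at 320 g/ha and/or 80 g/ha. Greenhouse growth followed for about 3 weeks, then visual scoring against untreated controls.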

SETVI [4] = experiment: Herbicidal post-emergence action 1a (greenhouse pots, visual rating); format: in vivo, Setaria viridis; settings: rated visually about 3 weeks after treatment, 100% = plants have died, 0% = like control plants
Method in brief: as §1

ALOMY [5] = experiment: as above; format: in vivo, Alopecurus myosuroides; settings: Dosage 320 g/ha; rated visually about 3 weeks after treatment; 100% = plants have died, 0% = like control plants
Method in brief: as §1

PHBPU [6] = experiment: Herbicidal pre-emergence action 2a (greenhouse pots, visual scoring); format: in vivo, Pharbitis purpurea; settings: dosage 320 g/ha, visual scoring after about 3 weeks vs untreated controls
Source text: (§3) [table] a) Seeds of monocotyledonous and dicotyledonous weed plants and crop plants are placed in plastic or organic plant pots and covered with soil. The compounds of the invention, formulated in the form of wettable powders (WP) or as emulsion concentrates (EC), are then applied onto the surface of the covering soil as aqueous suspension or emulsion with addition of 0.5% additive at a water application rate of 600 1/ha (converted). After the treatment, the pots are placed in a greenhouse and kept under good growth conditions for the trial plants. After about 3 weeks, the effect of the preparations is scored visually in comparison with untreated controls as percentages. For example, 100% activity=the plants have died, 0% activity=like control plants. Tables B1 to B15 below show the effects of selected compounds of the general formula (I) according to Tables 1 and 2 on various harmful plants and an application rate corresponding to 320 g/ha and/or 80 g/ha, which were obtained by the experimental procedure mentioned above.

VERPE [7] = experiment: Herbicidal post-emergence action 1a (greenhouse pots, visual rating); format: in vivo, Veronica persica; settings: visual rating about 3 weeks after treatment
Method in brief: as §1

LOLRI [8] = experiment: as above; format: in vivo, Lolium rigidum; settings: rated visually about 3 weeks after treatment, 100% = plants have died, 0% = like control plants
Method in brief: as §1

POLCO [9] = experiment: Herbicidal pre-emergence action 2a (greenhouse pots, visual scoring); format: in vivo, Polygonum convolvulus; settings: dosage 320 g/ha, visual scoring after about 3 weeks vs untreated controls
Method in brief: as §2

AMARE [10] = experiment: Herbicidal post-emergence action 1a (greenhouse pots, visual rating); format: in vivo, Amaranthus retroflexus; settings: visual rating about 3 weeks after treatment
Method in brief: as §1

VERPE [11] = experiment: Herbicidal pre-emergence action 2a (greenhouse pots, visual scoring); format: in vivo, Veronica persica; settings: dosage 320 g/ha, visual scoring after about 3 weeks vs untreated controls
Method in brief: as §2

ECHCG = experiment: Herbicidal post-emergence action 1a (greenhouse pots, visual rating); format: in vivo, Echinochloa crus-galli; settings: rated visually about 3 weeks after treatment, 100% = plants have died, 0% = like control plants
Method in brief: as §1

ABUTH [12] = experiment: Herbicidal pre-emergence action 2a (greenhouse pots, visual scoring); format: in vivo, Abutilon theophrasti; settings: dosage 320 g/ha, visual scoring after about 3 weeks vs untreated controls
Source text: as §3

ABUTH [13] = experiment: Herbicidal post-emergence action 1a (greenhouse pots, visual rating); format: in vivo, Abutilon theophrasti; settings: visual rating about 3 weeks after treatment
Method in brief: as §1

LOLRI [14] = experiment: Herbicidal pre-emergence action 2a (greenhouse pots, visual scoring); format: in vivo, Lolium rigidum; settings: dosage 320 g/ha, visual scoring after about 3 weeks vs untreated controls
Method in brief: as §2

MATIN [15] = experiment: as above; format: in vivo, Matricaria inodora; settings: dosage 320 g/ha, visual scoring after about 3 weeks vs untreated controls
Method in brief: as §2

ALOMY [16] = experiment: as above; format: in vivo, Alopecurus myosuroides; settings: dosage 320 g/ha, visual scoring after about 3 weeks
Method in brief: as §2

AMARE [17] = experiment: as above; format: in vivo, Amaranthus retroflexus; settings: dosage 320 g/ha, visual scoring after about 3 weeks vs untreated controls
Method in brief: as §2

PHBPU [18] = experiment: Herbicidal post-emergence action 1a (greenhouse pots, visual rating); format: in vivo, Pharbitis purpurea; settings: visual rating about 3 weeks after treatment
Method in brief: as §1

AVEFA [19] = experiment: as above; format: in vivo, Avena fatua; settings: Dosage 320 g/ha; rated visually about 3 weeks after treatment; 100% = plants have died, 0% = like control plants
Method in brief: as §1

SETVI [20] = experiment: Herbicidal pre-emergence action 2a (greenhouse pots, visual scoring); format: in vivo, Setaria viridis; settings: dosage 320 g/ha, visual scoring after about 3 weeks vs untreated controls
Method in brief: as §2

C[C@@H](Oc1nn(-c2cnccn2)c(-c2cncc(F)c2)c1Cl)C(=O)O [Example I-97]
Post-emergence action against POLCO in % (POLCO [1]; dosage 80 g/ha): 90% | Post-emergence action against POLCO in % (POLCO [1]; dosage 320 g/ha): 90% | Post-emergence action against MATIN in % (MATIN [2]; dosage 80 g/ha): 90% | Post-emergence action against MATIN in % (MATIN [2]; dosage 320 g/ha): 90% | Pre-emergence action against AVEFA in % (AVEFA [3]): 90% | Post-emergence action against SETVI in % (SETVI [4]; Dosage 80 g/ha): 90% | Post-emergence action against SETVI in % (SETVI [4]; Dosage 320 g/ha): 90% | Post-emergence action against ALOMY in % (ALOMY [5]): 90% | Pre-emergence action against PHBPU in % (PHBPU [6]): 100% | Post-emergence action against VERPE in % (VERPE [7]; dosage 80 g/ha): 90% | Post-emergence action against VERPE in % (VERPE [7]; dosage 320 g/ha): 90% | Post-emergence action against LOLRI in % (LOLRI [8]; Dosage 80 g/ha): 90% | Post-emergence action against LOLRI in % (LOLRI [8]; Dosage 320 g/ha): 100% | Pre-emergence action against POLCO in % (POLCO [9]): 90% | Post-emergence action against AMARE in % (AMARE [10]; dosage 80 g/ha): 90% | Post-emergence action against AMARE in % (AMARE [10]; dosage 320 g/ha): 90% | Pre-emergence action against VERPE in % (VERPE [11]): 100% | Post-emergence action against ECHCG in % (ECHCG; Dosage 80 g/ha): 90% | Post-emergence action against ECHCG in % (ECHCG; Dosage 320 g/ha): 90% | Pre-emergence action against ABUTH in % (ABUTH [12]): 90% | Post-emergence action against ABUTH in % (ABUTH [13]; dosage 80 g/ha): 90% | Post-emergence action against ABUTH in % (ABUTH [13]; dosage 320 g/ha): 90% | Pre-emergence action against LOLRI in % (LOLRI [14]): 100% | Pre-emergence action against MATIN in % (MATIN [15]): 100% | Pre-emergence action against ALOMY in % (ALOMY [16]): 100% | Pre-emergence action against AMARE in % (AMARE [17]): 100% | Post-emergence action against PHBPU in % (PHBPU [18]; dosage 80 g/ha): 90% | Post-emergence action against PHBPU in % (PHBPU [18]; dosage 320 g/ha): 100% | Post-emergence action against AVEFA in % (AVEFA [19]): 100% | Pre-emergence action against SETVI in % (SETVI [20]): 100%
